Assays:
[1] = system: Tyrosine-protein kinase ABL1 (Homo sapiens), P00519 [F317I]; details: Compound concentration 1000.0 nM
[2] = molecular target: Tyrosine-protein kinase ABL1 (Homo sapiens) (UniProt P00519); details: Compound concentration 1000.0 nM
[3] = molecular target: Activin receptor type-1 (Homo sapiens) (UniProt Q04771); details: Compound concentration 1000.0 nM
[4] = molecular target: Activin receptor type-2A (Homo sapiens) (UniProt P27037); details: Compound concentration 1000.0 nM
[5] = molecular target: RAC-alpha serine/threonine-protein kinase (Homo sapiens) (UniProt P31749); details: Compound concentration 1000.0 nM
[6] = molecular target: Calcium/calmodulin-dependent protein kinase type 1G (Homo sapiens) (UniProt Q96NX5); details: Compound concentration 1000.0 nM
[7] = molecular target: Cyclin-dependent kinase 2 (Homo sapiens) (UniProt P24941); details: Compound concentration 1000.0 nM
[8] = molecular target: Cyclin-dependent kinase 3 (Homo sapiens) (UniProt Q00526); details: Compound concentration 1000.0 nM
Chain of Cyclin-dependent kinase 3 (Homo sapiens) (Q00526 whole entry, looked up): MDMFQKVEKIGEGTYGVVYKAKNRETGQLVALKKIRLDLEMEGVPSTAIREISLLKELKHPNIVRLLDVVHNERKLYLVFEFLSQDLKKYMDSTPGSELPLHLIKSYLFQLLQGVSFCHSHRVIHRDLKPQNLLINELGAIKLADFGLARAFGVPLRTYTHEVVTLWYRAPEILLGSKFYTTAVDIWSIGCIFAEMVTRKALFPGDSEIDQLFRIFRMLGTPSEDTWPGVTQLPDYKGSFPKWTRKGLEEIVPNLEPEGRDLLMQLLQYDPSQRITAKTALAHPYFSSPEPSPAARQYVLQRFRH

[9] = molecular target: Myotonin-protein kinase (Homo sapiens) (UniProt Q09013); details: Compound concentration 1000.0 nM
Chain of Myotonin-protein kinase (Homo sapiens) (Q09013 whole entry): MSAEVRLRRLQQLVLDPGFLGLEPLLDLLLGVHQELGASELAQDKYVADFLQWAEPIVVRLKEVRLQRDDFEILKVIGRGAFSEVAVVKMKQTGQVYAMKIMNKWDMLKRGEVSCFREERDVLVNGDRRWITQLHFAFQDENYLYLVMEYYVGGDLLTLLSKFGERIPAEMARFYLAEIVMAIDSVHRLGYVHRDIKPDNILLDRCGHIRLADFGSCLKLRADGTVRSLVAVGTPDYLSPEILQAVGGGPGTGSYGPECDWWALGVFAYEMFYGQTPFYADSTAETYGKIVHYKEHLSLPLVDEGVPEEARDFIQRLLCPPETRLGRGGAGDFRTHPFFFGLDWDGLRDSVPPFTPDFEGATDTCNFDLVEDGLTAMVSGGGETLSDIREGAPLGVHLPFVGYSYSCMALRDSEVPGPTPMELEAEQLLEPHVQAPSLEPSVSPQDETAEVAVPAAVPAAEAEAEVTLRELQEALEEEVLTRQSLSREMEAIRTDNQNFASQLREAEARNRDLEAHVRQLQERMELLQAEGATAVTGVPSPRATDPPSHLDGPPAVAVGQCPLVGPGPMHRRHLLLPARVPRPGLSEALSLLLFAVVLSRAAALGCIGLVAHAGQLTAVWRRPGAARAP

[10] = molecular target: Receptor tyrosine-protein kinase erbB-2 (Homo sapiens) (UniProt P04626); details: Compound concentration 1000.0 nM
Chain of Receptor tyrosine-protein kinase erbB-2 (Homo sapiens) (P04626 whole entry): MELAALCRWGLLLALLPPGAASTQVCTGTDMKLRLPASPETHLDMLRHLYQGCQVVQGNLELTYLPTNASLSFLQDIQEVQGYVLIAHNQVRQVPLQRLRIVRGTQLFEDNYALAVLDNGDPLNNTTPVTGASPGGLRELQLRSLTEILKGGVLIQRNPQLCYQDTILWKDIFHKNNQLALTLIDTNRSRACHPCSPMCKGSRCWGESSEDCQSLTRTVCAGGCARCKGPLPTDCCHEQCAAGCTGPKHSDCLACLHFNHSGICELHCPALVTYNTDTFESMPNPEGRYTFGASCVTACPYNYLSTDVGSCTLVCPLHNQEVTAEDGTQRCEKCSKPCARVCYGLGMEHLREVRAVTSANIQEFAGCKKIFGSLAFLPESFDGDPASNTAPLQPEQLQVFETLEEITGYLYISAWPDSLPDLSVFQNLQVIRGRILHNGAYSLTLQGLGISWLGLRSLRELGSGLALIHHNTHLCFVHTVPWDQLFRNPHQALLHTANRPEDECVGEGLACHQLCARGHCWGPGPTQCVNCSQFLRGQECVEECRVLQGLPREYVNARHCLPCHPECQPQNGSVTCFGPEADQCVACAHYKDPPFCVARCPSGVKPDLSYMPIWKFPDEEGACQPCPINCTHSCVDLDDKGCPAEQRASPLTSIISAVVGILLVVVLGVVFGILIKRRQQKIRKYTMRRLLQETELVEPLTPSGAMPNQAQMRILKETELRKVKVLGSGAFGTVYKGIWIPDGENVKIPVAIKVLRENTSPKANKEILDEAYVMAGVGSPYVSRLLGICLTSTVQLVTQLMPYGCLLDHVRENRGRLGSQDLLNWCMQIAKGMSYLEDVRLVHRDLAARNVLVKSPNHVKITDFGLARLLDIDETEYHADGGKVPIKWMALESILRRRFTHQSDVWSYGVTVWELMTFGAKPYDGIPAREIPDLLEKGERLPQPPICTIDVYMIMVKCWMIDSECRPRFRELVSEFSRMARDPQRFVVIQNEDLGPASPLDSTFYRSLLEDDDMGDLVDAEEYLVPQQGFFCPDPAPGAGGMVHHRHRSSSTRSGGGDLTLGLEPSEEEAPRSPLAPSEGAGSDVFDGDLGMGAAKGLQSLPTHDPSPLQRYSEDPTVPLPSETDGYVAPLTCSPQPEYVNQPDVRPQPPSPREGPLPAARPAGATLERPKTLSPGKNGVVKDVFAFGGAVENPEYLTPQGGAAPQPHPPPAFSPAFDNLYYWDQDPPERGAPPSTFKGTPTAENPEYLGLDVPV

[11] = system: Receptor-type tyrosine-protein kinase FLT3 (Homo sapiens), P36888 [R834Q]; details: Compound concentration 1000.0 nM
[12] = molecular target: Receptor-type tyrosine-protein kinase FLT3 (Homo sapiens) (UniProt P36888); details: Compound concentration 1000.0 nM
[13] = molecular target: Rhodopsin kinase GRK7 (Homo sapiens) (UniProt Q8WTQ7); details: Compound concentration 1000.0 nM
[14] = molecular target: Tyrosine-protein kinase HCK (Homo sapiens) (UniProt P08631); details: Compound concentration 1000.0 nM
[15] = molecular target: Insulin receptor (Homo sapiens) (UniProt P06213); details: Compound concentration 1000.0 nM
[16] = system: Mast/stem cell growth factor receptor Kit (Homo sapiens), P10721 [V559D,T670I]; details: Compound concentration 1000.0 nM
[17] = molecular target: Leukocyte tyrosine kinase receptor (Homo sapiens) (UniProt P29376); details: Compound concentration 1000.0 nM
Chain of Leukocyte tyrosine kinase receptor (Homo sapiens) (P29376 whole entry): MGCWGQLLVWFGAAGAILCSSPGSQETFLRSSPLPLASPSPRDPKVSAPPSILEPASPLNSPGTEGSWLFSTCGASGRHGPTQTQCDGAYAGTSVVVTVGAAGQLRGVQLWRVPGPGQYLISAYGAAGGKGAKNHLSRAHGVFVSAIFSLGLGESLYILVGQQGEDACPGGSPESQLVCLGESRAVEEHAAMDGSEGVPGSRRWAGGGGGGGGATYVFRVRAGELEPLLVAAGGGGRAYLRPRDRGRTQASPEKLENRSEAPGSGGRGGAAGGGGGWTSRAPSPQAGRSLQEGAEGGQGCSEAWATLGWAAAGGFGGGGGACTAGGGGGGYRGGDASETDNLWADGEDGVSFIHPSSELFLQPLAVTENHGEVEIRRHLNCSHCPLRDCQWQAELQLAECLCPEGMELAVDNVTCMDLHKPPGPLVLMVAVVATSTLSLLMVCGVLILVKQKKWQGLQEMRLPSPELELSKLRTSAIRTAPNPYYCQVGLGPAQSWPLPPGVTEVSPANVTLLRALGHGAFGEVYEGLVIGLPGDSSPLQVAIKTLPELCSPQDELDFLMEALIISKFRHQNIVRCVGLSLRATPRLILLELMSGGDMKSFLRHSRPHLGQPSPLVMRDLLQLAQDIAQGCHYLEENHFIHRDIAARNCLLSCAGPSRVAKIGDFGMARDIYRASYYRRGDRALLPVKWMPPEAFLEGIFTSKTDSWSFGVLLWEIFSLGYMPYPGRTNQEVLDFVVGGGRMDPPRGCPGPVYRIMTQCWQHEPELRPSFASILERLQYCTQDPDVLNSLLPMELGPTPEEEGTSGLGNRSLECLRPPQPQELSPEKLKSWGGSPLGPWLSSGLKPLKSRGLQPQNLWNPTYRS

[18] = molecular target: Dual specificity mitogen-activated protein kinase kinase 3 (Homo sapiens) (UniProt P46734); details: Compound concentration 1000.0 nM
[19] = molecular target: Dual specificity mitogen-activated protein kinase kinase 4 (Homo sapiens) (UniProt P45985); details: Compound concentration 1000.0 nM
[20] = molecular target: Serine/threonine-protein kinase MRCK beta (Homo sapiens) (UniProt Q9Y5S2); details: Compound concentration 1000.0 nM
[21] = molecular target: Serine/threonine-protein kinase 4 (Homo sapiens) (UniProt Q13043); details: Compound concentration 1000.0 nM
[22] = molecular target: Serine/threonine-protein kinase 38-like (Homo sapiens) (UniProt Q9Y2H1); details: Compound concentration 1000.0 nM
[23] = molecular target: Serine/threonine-protein kinase Nek2 (Homo sapiens) (UniProt P51955); details: Compound concentration 1000.0 nM
[24] = molecular target: Mitogen-activated protein kinase 11 (Homo sapiens) (UniProt Q15759); details: Compound concentration 1000.0 nM
[25] = molecular target: Phosphorylase b kinase regulatory subunit alpha, liver isoform (Homo sapiens) (UniProt P46019); details: Compound concentration 1000.0 nM
[26] = molecular target: Phosphatidylinositol 4,5-bisphosphate 3-kinase catalytic subunit alpha isoform (Homo sapiens) (UniProt P42336); details: Compound concentration 1000.0 nM
[27] = molecular target: Serine/threonine-protein kinase N2 (Homo sapiens) (UniProt Q16513); details: Compound concentration 1000.0 nM
Chain of Serine/threonine-protein kinase N2 (Homo sapiens) (Q16513 whole entry, looked up): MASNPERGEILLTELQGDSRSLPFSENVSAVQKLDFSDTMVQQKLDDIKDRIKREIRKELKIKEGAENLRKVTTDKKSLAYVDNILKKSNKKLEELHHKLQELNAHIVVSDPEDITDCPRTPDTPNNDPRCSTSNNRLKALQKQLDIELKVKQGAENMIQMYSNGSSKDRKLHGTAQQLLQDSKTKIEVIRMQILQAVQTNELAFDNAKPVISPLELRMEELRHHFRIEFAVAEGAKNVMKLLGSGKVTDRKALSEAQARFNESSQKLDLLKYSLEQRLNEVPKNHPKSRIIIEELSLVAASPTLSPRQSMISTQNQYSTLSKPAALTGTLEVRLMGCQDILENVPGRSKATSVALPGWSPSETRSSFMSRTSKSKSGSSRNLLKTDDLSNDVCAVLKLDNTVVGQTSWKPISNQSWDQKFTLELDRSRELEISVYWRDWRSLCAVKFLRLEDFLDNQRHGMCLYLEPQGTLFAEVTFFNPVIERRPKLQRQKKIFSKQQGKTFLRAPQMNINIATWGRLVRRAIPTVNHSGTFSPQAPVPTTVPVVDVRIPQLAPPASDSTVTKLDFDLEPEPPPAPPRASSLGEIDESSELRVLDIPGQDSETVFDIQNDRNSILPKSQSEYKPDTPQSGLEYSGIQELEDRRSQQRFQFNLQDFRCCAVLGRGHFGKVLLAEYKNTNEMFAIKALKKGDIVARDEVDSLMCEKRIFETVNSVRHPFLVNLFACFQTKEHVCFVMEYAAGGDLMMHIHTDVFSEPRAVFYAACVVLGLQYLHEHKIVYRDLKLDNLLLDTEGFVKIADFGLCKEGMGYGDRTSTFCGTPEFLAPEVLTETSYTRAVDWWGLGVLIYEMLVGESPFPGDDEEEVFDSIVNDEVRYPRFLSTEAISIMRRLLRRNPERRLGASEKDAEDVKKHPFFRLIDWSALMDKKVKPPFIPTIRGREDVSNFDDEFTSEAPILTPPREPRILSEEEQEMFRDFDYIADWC

[28] = molecular target: cGMP-dependent protein kinase 1 (Homo sapiens) (UniProt Q13976); details: Compound concentration 1000.0 nM
[29] = molecular target: Serine/threonine-protein kinase PRP4 homolog (Homo sapiens) (UniProt Q13523); details: Compound concentration 1000.0 nM
[30] = molecular target: Ribosomal protein S6 kinase alpha-2 (Homo sapiens) (UniProt Q15349); details: Compound concentration 1000.0 nM
[31] = molecular target: SRSF protein kinase 3 (Homo sapiens) (UniProt Q9UPE1); details: Compound concentration 1000.0 nM
[32] = molecular target: Tyrosine-protein kinase TXK (Homo sapiens) (UniProt P42681); details: Compound concentration 1000.0 nM
Chain of Tyrosine-protein kinase TXK (Homo sapiens) (P42681 whole entry): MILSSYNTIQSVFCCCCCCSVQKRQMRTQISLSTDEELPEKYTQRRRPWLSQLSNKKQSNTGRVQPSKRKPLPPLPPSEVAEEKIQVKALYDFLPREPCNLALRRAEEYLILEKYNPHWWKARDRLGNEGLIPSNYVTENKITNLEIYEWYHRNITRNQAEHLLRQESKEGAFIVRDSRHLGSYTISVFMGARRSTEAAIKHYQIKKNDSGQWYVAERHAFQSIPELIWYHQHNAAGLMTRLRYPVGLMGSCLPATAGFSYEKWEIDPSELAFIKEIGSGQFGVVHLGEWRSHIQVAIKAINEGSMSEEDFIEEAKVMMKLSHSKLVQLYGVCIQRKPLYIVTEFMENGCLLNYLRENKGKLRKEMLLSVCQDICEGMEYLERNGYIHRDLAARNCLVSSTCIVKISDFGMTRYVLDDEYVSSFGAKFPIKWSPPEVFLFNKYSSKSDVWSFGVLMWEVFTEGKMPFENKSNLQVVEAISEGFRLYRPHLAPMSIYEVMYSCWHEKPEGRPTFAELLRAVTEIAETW

[33] = molecular target: Wee1-like protein kinase 2 (Homo sapiens) (UniProt P0C1S8); details: Compound concentration 1000.0 nM
[34] = molecular target: Serine/threonine-protein kinase 32A (Homo sapiens) (UniProt Q8WU08); details: Compound concentration 1000.0 nM
Chain of Serine/threonine-protein kinase 32A (Homo sapiens) (Q8WU08 whole entry): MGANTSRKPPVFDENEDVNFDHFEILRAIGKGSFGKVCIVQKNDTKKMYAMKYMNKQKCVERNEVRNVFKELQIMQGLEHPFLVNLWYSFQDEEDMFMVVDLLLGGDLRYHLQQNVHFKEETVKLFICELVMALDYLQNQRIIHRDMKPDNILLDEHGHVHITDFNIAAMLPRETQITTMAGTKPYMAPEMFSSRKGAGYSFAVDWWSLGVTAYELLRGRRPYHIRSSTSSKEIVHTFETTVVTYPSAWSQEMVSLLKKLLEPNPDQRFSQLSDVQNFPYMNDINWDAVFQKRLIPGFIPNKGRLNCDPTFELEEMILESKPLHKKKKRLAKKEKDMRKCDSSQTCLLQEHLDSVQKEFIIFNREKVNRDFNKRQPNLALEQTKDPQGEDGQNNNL

[35] = molecular target: T1, 5-hydroxytryptamine receptor 3A (Homo sapiens) (UniProt P46098); details: Compound concentration 10.0 uM
T1 sequence (whole entry): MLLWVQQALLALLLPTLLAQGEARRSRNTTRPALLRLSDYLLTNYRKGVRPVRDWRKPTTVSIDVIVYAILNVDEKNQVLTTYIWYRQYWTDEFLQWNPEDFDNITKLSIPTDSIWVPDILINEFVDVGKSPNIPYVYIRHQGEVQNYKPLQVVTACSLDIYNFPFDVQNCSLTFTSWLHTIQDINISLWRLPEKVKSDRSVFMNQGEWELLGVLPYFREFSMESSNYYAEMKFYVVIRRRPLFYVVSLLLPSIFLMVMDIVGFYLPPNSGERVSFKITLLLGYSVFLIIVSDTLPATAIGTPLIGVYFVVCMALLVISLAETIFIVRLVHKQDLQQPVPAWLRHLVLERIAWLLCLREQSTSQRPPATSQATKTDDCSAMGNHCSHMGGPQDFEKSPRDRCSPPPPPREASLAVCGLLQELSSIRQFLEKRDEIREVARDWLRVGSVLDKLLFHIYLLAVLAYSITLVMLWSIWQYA

[36] = molecular target: D(1A) dopamine receptor (Homo sapiens) (UniProt P21728); details: Compound concentration 10.0 uM
[37] = molecular target: Sodium-dependent noradrenaline transporter (Homo sapiens) (UniProt P23975); details: Compound concentration 10.0 uM
[38] = molecular target: Alpha-1A adrenergic receptor (Homo sapiens) (UniProt P35348); details: Compound concentration 10.0 uM
[39] = molecular target: Alpha-2B adrenergic receptor (Homo sapiens) (UniProt P18089); details: Compound concentration 10.0 uM

Cn1cncc1[C@@](O)(COc1ccc(C#N)cc1-c1ccc(OC(F)(F)F)cc1)c1ccc(C#N)cc1 [A-108]
inactive: residual activity [1] 88% | residual activity [2] 95% | residual activity [3] 100% | residual activity [4] 98% | residual activity [5] 100% | residual activity [6] 85% | residual activity [7] 89% | residual activity [8] 100% | residual activity [9] 94% | residual activity [10] 94% | residual activity [11] 100% | residual activity [12] 100% | residual activity [13] 81% | residual activity [14] 100% | residual activity [15] 84% | residual activity [16] 82% | residual activity [17] 100% | residual activity [18] 100% | residual activity [19] 100% | residual activity [20] 95% | residual activity [21] 100% | residual activity [22] 87% | residual activity [23] 95% | residual activity [24] 96% | residual activity [25] 92% | residual activity [26] 72% | residual activity [27] 85% | residual activity [28] 94% | residual activity [29] 100% | residual activity [30] 98% | residual activity [31] 56% | residual activity [32] 85% | residual activity [33] 100% | residual activity [34] 75% | inhibition [35] -0.62% | inhibition [36] 19% | inhibition [37] 5.18% | inhibition [38] 4.51% | inhibition [39] 20%

Cn1cncc1[C@](O)(COc1ccc(C#N)cc1-c1ccc(OC(F)(F)F)cc1)c1ccc(C#N)cc1 [ABT-100]
inactive: residual activity [1] 100% | residual activity [2] 100% | residual activity [3] 78% | residual activity [4] 100% | residual activity [5] 84% | residual activity [6] 96% | residual activity [7] 95% | residual activity [8] 71% | residual activity [9] 98% | residual activity [10] 100% | residual activity [11] 98% | residual activity [12] 100% | residual activity [13] 100% | residual activity [14] 100% | residual activity [15] 100% | residual activity [16] 84% | residual activity [17] 91% | residual activity [18] 78% | residual activity [19] 89% | residual activity [20] 76% | residual activity [21] 86% | residual activity [22] 65% | residual activity [23] 100% | residual activity [24] 90% | residual activity [25] 92% | residual activity [26] 100% | residual activity [27] 100% | residual activity [28] 91% | residual activity [29] 100% | residual activity [30] 85% | residual activity [31] 53% | residual activity [32] 87% | residual activity [33] 84% | residual activity [34] 100% | inhibition [35] 17.6% | inhibition [36] 4.35% | inhibition [37] 21.7% | inhibition [38] -7.75% | inhibition [39] 8.46%
